In publication PMC11305387, “AlphaFold accelerated discovery of psychotropic agonists targeting the trace amine–associated receptor 1” (Science Advances, 2024):
In brackets after ≈: the same amount, converted by molar mass.

How the values were obtained:
[1] = test system: WT and TAAR1-KO mice; assay: Open-field test: baseline locomotion and MK-801-induced hyperlocomotion; format: in vivo; settings: compound 65 1 mg/kg, risperidone 0.03 mg/kg
Method: To assess the influence of the compound on baseline locomotion and MK-801–induced hyperlocomotion, mice were subjected to open-field testing on four occasions separated by 96 hours. The first occasion was a mock test session where all mice were injected with vehicle only, serving to reduce the effect of novelty on subsequent sessions. The next three sessions were true test sessions with pretreatment of either compound 65, risperidone, or vehicle, followed by MK-801. The R package agricolae was used to generate a randomized block design, randomizing treatment order across sex, genotype, and test session. After injection with either compound 65 (1 mg/kg), risperidone (0.03 mg/kg), or vehicle intraperitoneally, mice were immediately placed in the open field and recorded for 15 min. They were then injected with MK-801 (0.35 mg/kg intraperitoneal) and recorded again for 60 min. The OFT arena measured 46 cm by 46 cm with gray floor and walls. The brightness at the center of each arena was 30 to 50 lux. The arenas were cleaned with 70% ethanol between each animal. Video from a camera mounted in the ceiling was analyzed using EthoVision XT11.5 (Noldus) software.

[2] = biological target: T1, D2 receptor (Homo sapiens, UniProt P14416); assay: cell-based; format: cell-based
T1 construct: TANGO fusion module (own knowledge, Kroeze et al.: C-terminal V2 tail, TEV site and tTA); 1000000068; host or cells: HTLA (HEK293-derived)
T1 sequence (P14416 whole entry, the tested form may be a part): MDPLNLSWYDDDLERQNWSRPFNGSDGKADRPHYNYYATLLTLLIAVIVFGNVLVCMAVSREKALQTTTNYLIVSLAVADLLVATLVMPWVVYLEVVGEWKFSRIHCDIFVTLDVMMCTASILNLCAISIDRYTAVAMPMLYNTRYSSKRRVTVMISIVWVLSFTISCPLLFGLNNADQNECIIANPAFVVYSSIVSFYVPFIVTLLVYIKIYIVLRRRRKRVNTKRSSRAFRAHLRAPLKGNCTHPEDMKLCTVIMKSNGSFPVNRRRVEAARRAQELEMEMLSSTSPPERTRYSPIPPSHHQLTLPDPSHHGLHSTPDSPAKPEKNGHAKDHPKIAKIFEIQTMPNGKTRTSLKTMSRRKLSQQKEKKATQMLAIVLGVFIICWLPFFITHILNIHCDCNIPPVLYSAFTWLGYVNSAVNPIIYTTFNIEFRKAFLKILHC
Method: Assessment of receptor activation by compounds at all human aminergic receptors were carried out using a modified version of the PRESTO-TANGO method. […] The plate was spun down, and 5 μl of a 1:25 dilution (in DPBS) of polyethylenimine (PEI) derivative (Transporter 5, Polysciences) was added (1:4 cDNA to PEI ratio) and incubated for 20 min at room temperature (RT). […] Luminescence signal was detected using a plate-reader (SPARK, Tecan) with 100-ms integration time and a 100-ms delay between well reads.

[3] = test system: WT and TAAR1-KO mice; assay: Accelerating rotarod test; format: in vivo; settings: 1 mg/kg i.p., 30 min after injection
Method: To test compound 65 for sedative effects, mice were subjected to the accelerating rotarod test as previously described ([77]), with minor modifications. Mice were acclimatized to the rotarod (Ugo Basile, Gemonio, Italy) for 2 days before testing, starting at 4 rotations per minute (RPM) and accelerating to 40 RPM over 300 s. A baseline measure of performance, defined as the latency to fall from the rotarod with a cutoff time of 300 s, was taken before injection with either compound 65 (1 mg/kg), xylazine (5 mg/kg), or vehicle intraperitoneally. The mice were then retested 30 min after injection.

[4] = Caco-2 cells permeability assay; format: in vitro ADME; settings: human
Method: Caco-2 cell monolayers (passages: 94 to 105) were grown on permeable filter support and used for transport study on day 21 after seeding. Before the experiment, a drug solution of 10 μM was prepared and warmed to 37°C. The Caco-2 filters were washed with pre-warmed HBSS before the experiment, and, thereafter, the experiment was started by applying the donor solution on the apical or basolateral side. The transport experiments were carried out at pH 7.4 in both the apical and basolateral chamber. The experiments were performed at 37°C and with a stirring rate of 500 rpm. The receiver compartment was sampled at 15, 30, and 60 min, and, at 60 min, also a final sample from the donor chamber was taken to calculate the mass balance of the compound. The samples (100 μl) were transferred to a 96-well plate containing 100 μl of methanol, and Warfarin as internal standard and was sealed until LC-MS/MS analysis.

[5] = Metabolic stability in liver microsomes; settings: human liver microsomes, 1 μM
[6] = Thermodynamic solubility; format: physicochemical; settings: 100 mM potassium phosphate buffer, aqueous buffer, thermodynamic from solid, 100 mM KPO4-buffer pH 7.4, 37°C
Method: Thermodynamic solubility assay used solid form of compound 65. Solid test compound (~2 to 3 mg) was weighed in a glass high-performance liquid chromatography (HPLC) vial, and 100 mM KPO4-buffer (pH 7.4) was added to give a theoretical max concentration if everything is dissolved of ~5 to 6 mg/ml. The vial was incubated at 900 rpm and 37°C in a rotational shaker for 24 hours. After the incubation, an aliquot (200 μl) was transferred to a glass insert and centrifuged at 10,000g and 37°C for 20 min to separate any solid material from the solution. The supernatant was transferred to a new HPLC vial and analyzed by LC-MS/MS.

For `CC1=C(c2ccco2)CNCC1` [Compound 65], the effect on locomotion ([1]; TAAR1-KO mice) was “did not exhibit such an effect”, the “effect on MK-801–induced hyperlocomotion” value ([1]; WT mice, MK-801 0.35 mg/kg) was “significant decrease” and the “effect on baseline locomotion” value ([1]; WT mice, versus vehicle) was “trend toward decreased locomotion”. For the same molecule, the EC50 ([2]; concentration-response curves) was > 1000 nM, the Emax ([2]; concentration-response curves) was 59% and the “agonism at the D2 receptor” value ([2]; panel screen) was “agonism”. For the same molecule, the “effect on rotarod performance (sedation)” value [3] was “did not influence rotarod performance”, the efflux ratio at 60 min, 10 μM [4] was 2.2 and the Papp A→B at 60 min, 10 μM ([4]; apical-to-basal, 10 μM, pH 7.4) was 77 ×10⁻⁶ cm/s. The Papp B→A at 60 min, 10 μM ([4]; basal-to-apical, 10 μM, pH 7.4) was 168 ×10⁻⁶ cm/s, the “intrinsic clearance CLint” value [5] was 16 μl/min per mg and the solubility at 24 h [6] was 50 mM (≈ 8160 µg/mL).
